Like-named read-outs stand apart in the source and are kept apart here.

Holding throughout (type): in vivo
Assay [1] concerns green peach aphid (Myzus persicae (Sulzer)). Kind of assay: Test E: control of green peach aphid through contact and/or systemic means. As to conditions: 144 h. As for the experimental part:
(§1) Formulation and Spray Methodology for Tests A-H
(§2) Test compounds were formulated using a solution containing 10% acetone, 90% water and 300 ppm Activator 90® non-ionic surfactant (Loveland Products, Loveland, Colo., USA). The formulated compounds were applied in 1 mL of liquid through an atomizer nozzle positioned 1.27 cm (0.5 inches) above the top of each test unit. Test compounds were sprayed at the rates indicated, and each test was replicated three times.
For evaluating control of green peach aphid (Myzus persicae (Sulzer)) through contact and/or systemic means, the test unit consisted of a small open container with a 12-15-day-old radish plant inside. This was pre-infested by placing on a leaf of the test plant 30-40 aphids on a piece of leaf excised from a culture plant (cut-leaf method). The aphids moved onto the test plant as the leaf piece desiccated. After pre-infestation, the soil of the test unit was covered with a layer of sand.
Test compounds were formulated and sprayed at 250, 50 and 10 ppm. After spraying of the formulated test compound, each test unit was allowed to dry for 1 hour and then a black, screened cap was placed on top. The test units were held for 6 days in a growth chamber at 19-21° C. and 50-70% relative humidity. Each test unit was then visually assessed for insect mortality.

Assay [2] has as its system sweetpotato whitefly (Bemisia tabaci (Gennadius)). The assay can be described thus: Test G: control of sweetpotato whitefly through contact and/or systemic means. As to conditions: 312 h. As for the experimental part:
as §1, §2
For evaluating control of the sweetpotato whitefly (Bemisia tabaci (Gennadius)) through contact and/or systemic means, the test unit consisted of a small open container with a 12-14-day-old cotton plant inside. Prior to the spray application, both cotyledons were removed from the plant, leaving one true leaf for the assay. Adult whiteflies were allowed to lay eggs on the plant and then were removed from the test unit. Cotton plants infested with at least 15 eggs were submitted to the test for spraying.
Test compounds were formulated and sprayed at 250, 50 and 10 ppm. After spraying, the test units were allowed to dry for 1 hour. The cylinders were then removed, and the units were taken to a growth chamber and held for 13 days at 28° C. and 50-70% relative humidity. Each test unit was then visually assessed for insect mortality.

The subject of assay [3] is cotton melon aphid (Aphis gossypii (Glover)). The assay can be described thus: Test F: control of cotton melon aphid through contact and/or systemic means. As to conditions: 144 h. As for the experimental part: as §1, §2
[…] This was pre-infested with 30-40 insects on a piece of leaf according to the cut-leaf method, and the soil of the test unit was covered with a layer of sand.
Test compounds were formulated and sprayed at 250, 50 and 10 ppm. After spraying, the test units were maintained in a growth chamber for 6 days at 19° C. and 70% relative humidity. Each test unit was then visually assessed for insect mortality.

[4] abbreviates: 50 ppm spray, 6 days, read-out: mortality.
The mark [5] stands for this setting: 10 ppm spray, 6 days, read-out: mortality.

On to `O=C(NCC1CC1)c1ccc(C2=NOC(c3cc(Cl)c(F)c(Cl)c3)(C(F)(F)F)C2)c2ccncc12` (stereo not drawn) [Compound 3, N-(cyclopropylmethyl)-5-[5-(3,5-dichloro-4-fluorophenyl)-4,5-dihydro-5-(trifluoromethyl)-3-isoxazolyl]-8-isoquinolinecarboxamide], for which the mortality at 10 ppm is at least 80% in assay [1], at least 50% in assay [2] and at least 80% in assay [3]. Moreover, the figures for the mortality at 50 ppm in assay [1], in assay [2] and in assay [3] were at least 80%, at least 50% and at least 80%, respectively.
With `C[C@@H](NC(=O)c1ccc(C2=NOC(c3cc(Cl)c(F)c(Cl)c3)(C(F)(F)F)C2)c2ccncc12)C(=O)NCC(F)(F)F` (stereo partly drawn) [Compound 56], the mortality at 50 ppm in assay [1] is at least 80%; in assay [2], at least 50%; in assay [3], at least 80%.
`C[S+]([O-])CCNC(=O)c1ccc(C2=NOC(c3cccc(C(F)(F)F)c3)(C(F)(F)F)C2)c2ccncc12` (stereo not drawn) [Compound 30]: the mortality at 50 ppm in assay [3] (setting [4]) is at least 80%.
In assay [3], `CS(=O)(=O)CCNC(=O)c1ccc(C2=NOC(c3cc(Cl)c(F)c(Cl)c3)(C(F)(F)F)C2)c2ccncc12` (stereo not drawn) [Compound 12] showed a mortality at 50 ppm of at least 80%.
On the same count and under the same terms, the result for `CSC[C@@H](C)NC(=O)c1ccc(C2=NOC(c3cc(Cl)c(F)c(Cl)c3)(C(F)(F)F)C2)c2ccncc12` (stereo partly drawn) [Compound 8] reads at least 80%; that for `C[C@@H](NC(=O)c1ccc(C2=NOC(c3cc(Cl)cc(C(F)(F)F)c3)(C(F)(F)F)C2)c2ccncc12)C(N)=O` (stereo partly drawn) [Compound 40], at least 80%.
Consider `C[C@@H](NC(=O)c1ccc(C2=NOC(c3cccc(C(F)(F)F)c3)(C(F)(F)F)C2)c2ccncc12)C(N)=O` (stereo partly drawn) [Compound 25], for which the mortality at 50 ppm in assay [3] (setting [4]) was at least 80%.
Consider `CS(=O)(=O)CCNC(=O)c1ccc(C2=NOC(c3cccc(C(F)(F)F)c3)(C(F)(F)F)C2)c2ccncc12` (stereo not drawn) [Compound 19], for which the mortality at 50 ppm is at least 50% in assay [2] (50 ppm spray, 13 days, read-out: mortality) and at least 80% in assay [3] (setting [4]).
As for `O=C(NCC1CC1)c1ccc(C2=NOC(c3cccc(C(F)(F)F)c3)(C(F)(F)F)C2)c2ccncc12` (racemic) [Compound 17, N-(cyclopropylmethyl)-5-[4,5-dihydro-5-(trifluoromethyl)-5-[3-(trifluoromethyl)phenyl]-3-isoxazolyl]-8-isoquinolinecarboxamide], the mortality at 10 ppm in assay [1] (setting [5]) and in assay [3] (setting [5]) was at least 80% in each case. Also, the mortality at 50 ppm in assay [1] (setting [4]) and in assay [3] (setting [4]) was at least 80% throughout.
On to `CNC(=O)c1ccc(C2=NOC(c3cc(Cl)c(F)c(Cl)c3)(C(F)(F)F)C2)c2ccncc12` (stereo not drawn) [Compound 27], for which the mortality at 50 ppm in assay [1] and in assay [3] was at least 80% in each case.
For `O=C(NC1CC1)c1ccc(C2=NOC(c3cccc(C(F)(F)F)c3)(C(F)(F)F)C2)c2ccncc12` (stereo not drawn) [Compound 16, N-cyclopropyl-5-[4,5-dihydro-5-(trifluoromethyl)-5-[3-(trifluoromethyl)phenyl]-3-isoxazolyl]-8-isoquinolinecarboxamide], the mortality at 50 ppm in assay [1] (setting [4]) is at least 80%.
In assay [3], `CCNC(=O)c1ccc(C2=NOC(c3cc(Cl)c(F)c(Cl)c3)(C(F)(F)F)C2)c2ccncc12` (stereo not drawn) [Compound 46, 5-[5-(3,5-dichloro-4-fluorophenyl)-4,5-dihydro-5-(trifluoromethyl)-3-isoxazolyl]-N-ethyl-8 soquinolinecarboxamide] displayed a mortality at 10 ppm of at least 80% and a mortality at 50 ppm of at least 80%.
With `O=C(NCC1CCCO1)c1ccc(C2=NOC(c3cc(Cl)c(F)c(Cl)c3)(C(F)(F)F)C2)c2ccncc12` (stereo not drawn) [Compound 26], the mortality at 50 ppm in assay [2] was at least 50%; in assay [3] it was at least 80%.
